Test results from PMC11591188, “First Report on Cationic Triphenylphosphonium Compounds as Mitochondriotropic H3R Ligands with Antioxidant Properties” (Antioxidants, 2024).
Values joined by “and” are separate entries in the source; they are usually repeats but may differ in a detail not shown here. Equal values may be shown once. Read-outs that look alike come from different tables or passages of the source.

Experiments:
[1] = Oxygen radical absorbance capacity (ORAC-FL) assay; settings: mean Trolox equivalents with SEM, at least three independent experiments, 37 °C
Description: Antioxidant properties were analyzed using an oxygen radical absorbance capacity (ORAC) assay at 37 °C [27]. Solutions of the fluorescent probe fluorescein at 100 nM and test ligands at concentrations between 20 µM and 6.25 µM were incubated for 15 min in potassium phosphate buffer (75 mM, pH 7.4) protected from light in black 96-well plates at 37 °C. Then, 2,2′-azobis (2-amidinopropane) dihydrochloride (AAPH) was added as a peroxyl radical generator. The fluorescence intensity ([…]) was measured every minute for 90 min. 6-Hydroxy-2,5,7,8-tetramethylchroman-2-carboxylic acid (Trolox) was used as a standard at concentrations between 20 µM and 6.25 µM. Data were obtained in duplicate from at least three independent experiments and evaluated using GraphPad Prism 7.02. Fluorescence intensity was normalized to that of the blank (without AAPH). The area under the fluorescence decay curve for each antioxidant (AUCantioxidant) and for the negative control without antioxidants (AUCnegative control) were calculated for each concentration by summing the fluorescence intensities at each time point. AUCnegative control was subtracted from the AUCantioxidant to calculate the net AUC. Linear regression of the net AUC against the corresponding antioxidant concentration was performed. The ratios of the antioxidant and Trolox slopes from the same experiment were calculated. Thus, ORAC values were expressed as Trolox equivalents [TE], and caffeic acid was used as a reference.

hH3R [2] = biological target: T1, hH3R (Homo sapiens, UniProt Q9Y5N1); test: hH3R radioligand displacement assay ([3H]Nα-methylhistamine, HEK-293-hH3R membranes); type: binding
T1 construct: expressed in transfected cells; host or cells: HEK-293 cells stably expressing hH3R
T1 sequence (Q9Y5N1 whole entry): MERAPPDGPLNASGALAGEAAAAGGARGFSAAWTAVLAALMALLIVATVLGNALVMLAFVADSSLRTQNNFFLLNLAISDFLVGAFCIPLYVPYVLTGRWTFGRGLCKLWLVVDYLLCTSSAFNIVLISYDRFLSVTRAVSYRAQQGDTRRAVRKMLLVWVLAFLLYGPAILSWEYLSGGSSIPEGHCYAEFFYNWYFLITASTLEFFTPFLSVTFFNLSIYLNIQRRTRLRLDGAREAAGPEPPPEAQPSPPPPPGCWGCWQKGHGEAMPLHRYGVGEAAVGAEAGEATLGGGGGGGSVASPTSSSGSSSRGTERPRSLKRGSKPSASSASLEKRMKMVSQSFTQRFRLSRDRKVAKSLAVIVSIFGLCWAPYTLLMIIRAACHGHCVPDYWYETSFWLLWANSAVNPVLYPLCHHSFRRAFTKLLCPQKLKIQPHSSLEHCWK
Description: Radioligand displacement assays were performed on the membrane fractions of HEK-293 cells stably expressing hH3R455, which occurs mainly in the brain, as described previously with slight modifications. HEK-293-hH3R cells were grown in Dulbecco’s Modified Eagle Medium (DMEM) supplemented with 10% FBS, 100 µg/mL penicillin, 100 units/mL streptomycin, and 10 mM HEPES solution at 37 °C in a humidified atmosphere of 5% CO2. To prepare membrane fractions, cells were washed in a phosphate-buffered saline (PBS) solution and harvested. The cells were centrifuged at 3000× g for 10 min at 4 °C and homogenized with Ultraturrax® in ice-cold binding buffer (75 mM Tris-HCl, 10 mM MgCl2, 100 mM NaCl, pH 7.4). The homogenate was centrifuged twice (20,000× g, 20 min, 4 °C) and reconstituted in an ice-cold binding buffer. Test ligands, radiolabeled ligands, and membrane fractions (20 µg/well) were added to 96-well plates to a final assay volume of 200 µL. After 90 min of incubation with shaking at 25 °C, a cell harvester was used to separate bound from free ligands by filtration through GF/B filters pretreated with 0.3% (m/v) polyethylenimine. Radioactivity was determined by liquid scintillation counting. […] The test ligands were evaluated at concentrations between 100 µM and 0.03 nM. […] Specific binding was calculated by subtracting non-specific binding from the raw data. Data were obtained in duplicate from at least three independent experiments and analyzed using GraphPad Prism 7.02. using a nonlinear regression. The Cheng–Prusoff equation was used to calculate Ki values from the IC50 values. Mean values and 95% confidence intervals were calculated using −log(Ki) and converted to nanomolar concentrations.
S4. hH3R Radioligand Displacement Assay
Radioligand displacement assays were performed on the membrane fractions of HEK-293 cells stably expressing hH3R. Cultivation of hH3R-HEK-293 cells and membrane preparation was performed as described previously. [3H]Nα-Methylhistamine was used as the radiolabeled probe at a final […]
-log(Ki) was used to calculate mean values and 95% confidence intervals.
Figure S13. hH3R competition binding curve of compounds 6a
Figure S14. hH3R competition binding curve of compounds 6b […]

[3] = Cytotoxic effects on SH-SY5Y cells after 24 h (alamar blue viability assay); type: cell-based; settings: human, SH-SY5Y neuroblastoma cells, 24 h, 95% confidence interval, at least three independent experiments, read-out: LC50
Description: (§1) The cytotoxic effects of the tested ligands on neuroblastoma SH-SY5Y cells were determined using the alamar blue viability assay. SH-SY5Y cells were grown in Minimum Essential Medium Eagle (MEME) supplemented with non-essential amino acids, 10% FBS, 100 µg/mL penicillin, 100 units/mL streptomycin, and 2 mM L-glutamine at 37 °C in a humidified atmosphere of 5% CO2. SH-SY5Y cells were seeded in 96-well plates at a density of 8.0 × 10^3 cells per well and grown at 37 °C in a humidified atmosphere of 5% CO2. 24 h after seeding, the test ligands were added at concentrations between 30 µM and 1 nM in a final assay volume of 100 µL per well and incubated for 24 h. Cells treated with 1-methyl-4-phenylpyridinium iodide (MPP+) served as a positive control for cytotoxic effects. The concentration of DMSO was limited to 1% for all the assay points. The medium supplemented with the test compounds was discarded, and 100 µL of resazurin solution in RPMI-1640 medium (44 µM) was added. After two hours of incubation at 37 °C in a humidified atmosphere of 5% CO2, fluorescence intensity ([…]) was determined. Data were obtained in duplicate from at least three independent experiments. LC50 values were evaluated using GraphPad Prism 7.02. using a nonlinear regression. Mean values and 95% confidence intervals were calculated using −log(Ki) and converted to nanomolar concentrations.

SH-SY5Y cells = test: as above; type: cell-based; settings: for effects on cell viability: concentrations below 1 µM
Description: as §1

hH3R [4] = biological target: T1, hH3R; settings: cited from earlier work
[5] = Table 2, from Ki, read-out: pKi (converted)
[6] = [3H]Nα-methylhistamine displacement on HEK-293-hH3R membranes, 95% confidence interval, at least three independent experiments, read-out: hH3R Ki

Compound	ORAC [1]	Ki (hH3R [2]; [5])	Ki (hH3R [2]; [6])	CC50 at 24 h [3]	further results
c1ccc([P+](CCCCCCCCOc2ccc(OCCCN3CCCCC3)cc2)(c2ccccc2)c2ccccc2)cc1 [Compound 6d, Triphenyltriphenyl-(8-(4-(3-(piperidin-1-yl)propoxy)phenoxy)octyl)phosphonium bromide]	0.89 ± 0.16 TE	20.4 nM	20.4 nM	2690 nM	
[Br-].c1ccc([P+](CCCCCOc2ccc(OCCCN3CCCCC3)cc2)(c2ccccc2)c2ccccc2)cc1 [Compound 6b, Triphenyl-(5-(4-(3-(piperidin-1-yl)propoxy)phenoxy)pentyl)phosphonium bromide]	0.70 ± 0.01 TE	17.6 nM	17.6 nM	21800 nM	effects on cell viability (SH-SY5Y cells): no significant effects on cell viability
CNCCc1cnc[nH]1 [[^3H]N^α-methylhistamine, reference compound]					Kd (hH3R [2]; probe used at a final concentration of 2 nM, read-out: Kd of the radiolabeled probe): 3.08 nM
CCNC(=O)[C@H]1C[C@@](F)(c2ccc(CN3CCCC3)c(F)c2)C1 [PF-03654746]					Ki (hH3R [4]; Table 2, co-crystallized ligand of 7F61, read-out: Ki): 3.2 nM
CN1CCc2ccc(OCCCN3CCCCC3)cc2C1=O [Compound I]					Ki (hH3R [4]; Figure 1, read-out: hH3R Ki): 23 nM
c1ccc([P+](CCCCOc2ccc(OCCCN3CCCCC3)cc2)(c2ccccc2)c2ccccc2)cc1 [Compound 6a]	1.04 ± 0.03 TE	32 nM	32 nM	40000 nM	effects on cell viability (SH-SY5Y cells): no significant effects on cell viability
c1ccc([P+](CCCCCCOc2ccc(OCCCN3CCCCC3)cc2)(c2ccccc2)c2ccccc2)cc1 [Compound 6c, Triphenyltriphenyl-(6-(4-(3-(piperidin-1-yl)propoxy)phenoxy)hexyl)phosphonium bromide]	0.54 TE and 0.54 ± 0.03 TE	31.5 nM	31.5 nM	11200 nM	
c1ccc([P+](CCCCCCCCCOc2ccc(OCCCN3CCCCC3)cc2)(c2ccccc2)c2ccccc2)cc1 [Compound 6e, Triphenyltriphenyl-(9-(4-(3-(piperidin-1-yl)propoxy)phenoxy)nonyl)phosphonium bromide]	1.07 ± 0.06 TE	14.1 nM	14.1 nM	< 1000 nM	CC50 (SH-SY5Y cells; 24 h, 95% confidence interval, at least three independent experiments, read-out: LC50 (the source's name)): 910 nM
c1ccc([P+](CCCCCCCCCCOc2ccc(OCCCN3CCCCC3)cc2)(c2ccccc2)c2ccccc2)cc1 [Compound 6f, Triphenyltriphenyl-(10-(4-(3-(piperidin-1-yl)propoxy)phenoxy)decyl)phosphonium bromide]	0.59 ± 0.06 TE		67.4 nM	2610 nM	Ki (hH3R [2]; Table 2, biological activity repeated next to the IFD results, read-out: Ki): 67.4 nM
O=C(O)/C=C/c1ccc(O)c(O)c1 [Caffeic acid, reference compound]	3.08 ± 0.13 TE				
